Patent publication US20230137836A1, “NOVEL PROLYLFK506 DERIVATIVES HAVING NEURITE GROWTH AND SYNAPSE FORMATION ACTIVITIES AND USES THEREOF” (Seoul National University R&DB Foundation, priority 2020, published 2023)
Converted amounts (≈) assume the structure as drawn.

How the values were obtained:
[1] = system: primary cultured murine hippocampal neurons; experiment: functional synaptogenic activity, patch-clamp recordings of excitatory synaptic currents; type: cell-based; settings: treatment concentration 1 ng/mL, days 10-14 after primary culture
Procedure: The functional synaptogenic activity of the four kinds of novel compounds was examined using primary cultured murine hippocampal neurons according to a method reported by D. Park. et al. (Sci. Rep. 7:7260, 2017). In detail, hippocampal neurons on days 10-14 after primary culture while being exposed to FK506 or each of the four kinds of novel compounds (treatment concentration: 1 ng/mL) was subjected to patch-clamp recordings to measure frequency of excitatory synaptic currents. The frequency of excitatory synaptic currents is used as an index for changes in the number of synapses.

HEK293 T Cell = experiment: MTT assay for cytotoxicity; type: cell-based; settings: 100 nM to 1,000 nM, FIG. 29
Procedure: (§1) To examine safety of the four kinds of novel compounds, an MTT assay for a cytotoxicity test, an Ames test for rapid evaluation of genotoxicity, and an hERG assay for evaluation of potential effects on cardiac repolarization were carried out. Methods generally used were conducted for the examination.
(§2) In detail, in the MTT assay, 80 to 800 times higher concentrations (100 nM to 1,000 nM) than the […] (1 ng/mL=1.24 nM) were determined as test concentrations of the four kinds of novel compounds. and the drug cytotoxicity was measured in mammalian normal cells (HEK293 T Cell). In the Ames test, the four kinds of novel compounds were treated at a concentration of 4 μg, 16 μg, 64 μg per plate, respectively, and the four kinds of novel compounds were evaluated by examining whether reverse mutation was induced a histidine auxotroph strain (Salmonella typhimurium TA98) and a tryptophan auxotroph strain (Escherichia coli WP2 uvrA). In the hERG assay, 0 μM, 2 μM, 8 μM, and 32 μM of each of the four kinds of novel compounds were treated to two or more numbers of cells. One CHO hERG cell was perfused with a normal tyrode solution. After confirming that the hERG channel current was recorded consistently for 3 to 4 sweeps, an excipient control group and the groups, each treated with one of the four kinds of novel compounds, were perfused for about 1 minute to 2 minutes or longer, and the magnitude of the hERG channel current was allowed to constantly record, and the magnitude of the relative current (pA or nA) and the suppression rate (%) were measured.

[2] = system: Escherichia coli WP2 uvrA; experiment: Ames test (reverse mutation), tryptophan auxotroph strain; settings: 4 μg, 16 μg, 64 μg per plate
Procedure: as §1, §2

[3] = system: Salmonella typhimurium TA98; experiment: Ames test (reverse mutation), histidine auxotroph strain; settings: 4 μg, 16 μg, 64 μg per plate
Procedure: as §1, §2

hERG channel = target: T1, hERG channel (Homo sapiens, UniProt Q12809); experiment: hERG assay in CHO hERG cells; type: cell-based; settings: 0 μM, 2 μM, 8 μM, and 32 μM
T1 construct: expressed in transfected cells; host or cells: CHO hERG cells
Text: Further, in still another specific embodiment of the present invention, safety was confirmed in a 3-(4,5-dimethylthiazol-2-yl)-2,5-diphenyltetrazolium bromide (MTT) assay (FIG. 29) for cytotoxicity tests of the four kinds of novel compounds, an Ames test for rapid evaluation of genotoxicity, a human eag-related gene (hERG) assay for evaluation of potential effects on cardiac repolarization.
as §1, §2

[4] = system: nigrostriatal dopaminergic pathway; experiment: MPTP-induced Parkinson's disease animal model, TH immunohistochemistry; type: in vivo, mouse; settings: cannula injection into brain for 3 days, 5 mg/mL, MPTP i.p. on day 2, measured day 4, FIG. 28A
[5] = system: primary cultured murine hippocampal neurons; experiment: neurite outgrowth in primary cultured hippocampal neurons; type: cell-based; settings: treatment concentration 1 ng/mL, neurite lengths, FIG. 26
Procedure: The neuronal growth-promoting ability of the four kinds of novel compounds was examined using primary cultured murine hippocampal neurons according to a method reported by Jing Sun et al. (J. Neuroinflam. 15:180, 2018). […] The neurite lengths were measured on photographic prints according to a previously reported method (J. Pharmacol. Exp. Ther. 302:1278-1285, 2002).

CD4+ T cells = experiment: in vitro T-cell activation assay (CTV retention, flow cytometry); type: cell-based, mouse
Text: The reduced level of the immunosuppressive activity of the four kinds of novel compounds was examined using a common in vitro T-cell activation assay (J. Immunol. 143:718-726, 1989). […] When CD4+ T cells are stained with Cell Trace™ Violet (CTV), CTV retention of each cell decreases, as cells divide and T cells proliferate according to the immune response, and thus immunosuppressive activity was examined using the CTV retention as an index.
Single cells were isolated from the spleen of 6- to 8-week-old B6J laboratory mouse, and CD4+ T cells were isolated using MagniSort® Mouse CD4 T cell Enrichment Kit (eBioscience). CD4+ T cells were stained with Cell Trace™ Violet (CTV) Cell Proliferation Kit (Molecular Probes) and FK506 or each of the four kinds of novel compounds was added at a concentration of 0.01 ng/mL, 0.1 ng/mL, 1 ng/mL, 10 ng/mL, 100 ng/mL, 1000 ng/mL, followed by incubation for 72 hours. For activation of T cells. Dynabeads® Mouse T-Activator CD3/CD28 (Gibco) was used. As a control group, non-activated T cells were used. After incubation, CTV intensity was analyzed by flow cytometry.

T1 sequence (Q12809 whole entry): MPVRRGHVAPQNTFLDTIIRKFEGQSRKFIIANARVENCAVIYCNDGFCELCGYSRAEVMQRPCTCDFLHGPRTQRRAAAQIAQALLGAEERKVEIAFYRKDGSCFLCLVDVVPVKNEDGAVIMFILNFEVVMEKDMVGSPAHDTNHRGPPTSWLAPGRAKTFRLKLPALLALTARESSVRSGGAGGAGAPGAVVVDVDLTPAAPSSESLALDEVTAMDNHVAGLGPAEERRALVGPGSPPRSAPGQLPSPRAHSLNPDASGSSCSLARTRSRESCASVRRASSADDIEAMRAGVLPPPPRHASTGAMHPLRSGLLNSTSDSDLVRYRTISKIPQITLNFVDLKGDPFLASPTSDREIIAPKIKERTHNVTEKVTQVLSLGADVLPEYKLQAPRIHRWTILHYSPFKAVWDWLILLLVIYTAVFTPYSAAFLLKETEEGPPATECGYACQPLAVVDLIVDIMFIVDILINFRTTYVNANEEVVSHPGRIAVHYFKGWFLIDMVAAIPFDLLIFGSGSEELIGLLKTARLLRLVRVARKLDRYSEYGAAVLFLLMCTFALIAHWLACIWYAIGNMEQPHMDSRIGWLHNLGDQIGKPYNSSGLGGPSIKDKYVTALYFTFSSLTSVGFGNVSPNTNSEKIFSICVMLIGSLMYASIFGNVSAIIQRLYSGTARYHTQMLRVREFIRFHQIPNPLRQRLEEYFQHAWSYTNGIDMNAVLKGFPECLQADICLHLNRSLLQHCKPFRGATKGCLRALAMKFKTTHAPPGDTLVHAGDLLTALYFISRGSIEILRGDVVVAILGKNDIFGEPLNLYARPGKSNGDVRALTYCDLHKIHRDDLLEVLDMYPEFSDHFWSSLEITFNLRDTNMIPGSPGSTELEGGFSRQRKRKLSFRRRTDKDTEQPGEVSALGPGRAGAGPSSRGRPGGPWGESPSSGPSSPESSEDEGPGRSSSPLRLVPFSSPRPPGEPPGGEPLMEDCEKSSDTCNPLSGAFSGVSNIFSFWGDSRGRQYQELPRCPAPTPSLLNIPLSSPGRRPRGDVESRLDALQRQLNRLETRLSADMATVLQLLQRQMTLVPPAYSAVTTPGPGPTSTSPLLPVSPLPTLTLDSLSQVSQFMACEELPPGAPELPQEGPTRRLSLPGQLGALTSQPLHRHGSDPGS

Molecule	spontaneous excitatory synaptic currents (sEPSCs), frequency [1]	cytotoxicity (MTT) (HEK293 T Cell)	reverse mutation induction (Ames test) [2]	reverse mutation induction (Ames test) [3]	risk of cardiac repolarization (hERG channel current) (hERG channel)	recovery in the density of neuron fibers [4]	neurite outgrowth effect [5]	Immunosuppression IC50 (CD4+ T cells; activated mouse CD4+ T cells (CD3/CD28), 72 hours incubation, CTV intensity by flow cytometry) [ng/mL]	immunosuppressive activity as compared with FK506 (CD4+ T cells; T cell proliferation, CTV intensity, Table 7 and FIG. 25)	IC50 (CD4+ T cells; activated mouse CD4+ T cells (CD3/CD28), 72 hours incubation, CTV intensity by flow cytometry, read-out: Immunosuppression IC50) [µg/mL]
C=CC[C@@H]1/C=C(\C)C[C@H](C)C[C@H](OC)[C@H]2O[C@@](O)(C(=O)C(=O)N3CCCC[C@H]3C(=O)O[C@H](/C(C)=C/[C@@H]3CC[C@@H](O)[C@H](OC)C3)[C@H](C)[C@@H](O)CC1=O)[C@H](C)C[C@@H]2OC [FK506]	2.61±0.18	–	–	–	–	–	–	–	–	–
CCC[C@@H]1/C=C(\C)C[C@H](C)C[C@H](OC)[C@H]2O[C@@](O)(CC(=O)N3CCC[C@H]3C(=O)O[C@H](/C(C)=C/[C@@H]3CC[C@@H](O)[C@H](OC)C3)[C@H](C)[C@@H](O)CC1=O)[C@H](C)C[C@@H]2OC [9-deoxo-36,37-dihydro-prolyl FK506]	3.29±0.22	no cytotoxicity was observed	without inducing reverse mutations	without inducing reverse mutations	without risk of cardiac repolarization	superior recovery in the density of neuron fibers, as compared to those treated with FK506	–	–	–	–
9-deoxo-prolyl FK520	–	–	without inducing reverse mutations	without inducing reverse mutations	without risk of cardiac repolarization	superior recovery in the density of neuron fibers, as compared to those treated with FK506	superior neurite outgrowth effect, as compared with FK506	3288.8	–	–
CC[C@@H]1/C=C(\C)C[C@H](C)C[C@H](OC)[C@H]2O[C@@](O)(CC(=O)N3CCC[C@H]3C(=O)O[C@H](/C(C)=C/[C@@H]3CC[C@@H](O)[C@H](O)C3)[C@H](C)[C@@H](O)CC1=O)[C@H](C)C[C@@H]2OC [9-deoxo-31-O-demethyl-prolyl FK520]	–	no cytotoxicity was observed	without inducing reverse mutations	without inducing reverse mutations	without risk of cardiac repolarization	superior recovery in the density of neuron fibers, as compared to those treated with FK506	–	–	lowest immunosuppressive activity	7.09 (≈ 9.45 µM)
CCC[C@@H]1/C=C(\C)C[C@H](C)C[C@H](OC)[C@H]2O[C@@](O)(CC(=O)N3CCC[C@H]3C(=O)O[C@H](/C(C)=C/[C@@H]3CC[C@@H](O)[C@H](O)C3)[C@H](C)[C@@H](O)CC1=O)[C@H](C)C[C@@H]2OC [9-deoxo-31-O-demethyl-36,37-dihydro-prolyl FK506]	2.63±0.27	no cytotoxicity was observed	without inducing reverse mutations	without inducing reverse mutations	without risk of cardiac repolarization	superior recovery in the density of neuron fibers, as compared to those treated with FK506	–	–	–	–
